The source of these data is patent US11261186B2, “Biaryl derivative as GPR120 agonist” (LG CHEM, LTD., priority 2014, dated 2022).

SMILES strings stand for the structures.

The target of this assay is T1, hGPR120 (Homo sapiens, UniProt Q5NUL3).
T1 construct: expressed in transfected cells; host or cells: CHO-K1
T1 sequence (Q5NUL3 1-361): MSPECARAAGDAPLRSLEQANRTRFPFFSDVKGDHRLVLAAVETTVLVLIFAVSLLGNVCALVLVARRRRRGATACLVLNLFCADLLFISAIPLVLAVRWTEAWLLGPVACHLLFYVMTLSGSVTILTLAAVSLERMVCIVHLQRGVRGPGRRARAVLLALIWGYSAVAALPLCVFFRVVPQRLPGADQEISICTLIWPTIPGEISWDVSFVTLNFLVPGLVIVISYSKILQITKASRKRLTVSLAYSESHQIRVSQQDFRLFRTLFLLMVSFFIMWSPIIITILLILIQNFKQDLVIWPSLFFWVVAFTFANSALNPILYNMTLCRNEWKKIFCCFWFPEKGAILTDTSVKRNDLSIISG
Description: Measurement of Activity of GPR120 Agonist (Cell-Based Assay), Calcium 5 dye fluorescence. The settings on record: CHO-K1 cells expressing Ga16 and hGPR120. The method, boiled down:
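Gα16/hGPR120 CHO-K1; 18 h plating, 37 °C, 5% CO2; Calcium 5 dye load 1 h; agonist serial dilution, 0.5% DMSO final; fluor Ex485/Em525; response as % of 1% DMSO vehicle.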
With `Cc1cc(OC2CCC2)nc(-c2cc(F)c(OCCCC(=O)O)c(F)c2)c1` [Example 395, 4-[4-[6-(cyclobutoxy)-4-methyl-2-pyridyl]-2,6-difluoro-phenoxy]butanoic acid], the EC50 is below 200 nM.
With `Cc1cc(OCC2CC2)nc(-c2cc(F)c(OCCCC(=O)O)c(Cl)c2)n1` [Example 396, 4-[2-chloro-4-[4-(cyclopropylmethoxy)-6-methyl-pyrimidin-2-yl]-6-fluoro-phenoxy]butanoic acid], the concentration for a half-maximal effect (EC50) is below 200 nM.
For the molecule `O=C(O)CCCOc1c(F)cc(-c2csc(OCC3CC3)n2)cc1F` [Example 397, 4-[4-[2-(cyclopropylmethoxy)thiazol-4-yl]-2,6-difluoro-phenoxy]butanoic acid], the EC50 was below 200 nM.
The figure for `O=C(O)CCCOc1c(F)cc(-c2cncc(OC3CCC3)n2)cc1F` [Example 398, 4-[4-[6-(cyclobutoxy)pyrazin-2-yl]-2,6-difluoro-phenoxy]butanoic acid] is below 200 nM; for `CC(CCCC(=O)O)c1c(F)cc(-c2cncc(OC3CCC3)n2)cc1F` (stereo not drawn) [Example 399, 5-[4-[6-(cyclobutoxy)pyrazin-2-yl]-2,6-difluoro-phenyl]hexanoic acid] it is below 200 nM; for `O=C(O)CCCOc1c(F)cc(-c2cccc(OC3CCCC3)n2)cc1Cl` [Example 400, 4-[2-chloro-4-(6-cyclopentyloxy-pyridin-2-yl)-6-fluoro-phenoxy]-butyric acid] it is below 200 nM.
The figure for `O=C(O)CCCOc1c(F)cc(-c2cccc(OCC3CC3)n2)cc1Cl` [Example 401, 4-[2-chloro-4-(6-cyclopropylmethoxy-pyridin-2-yl)-6-fluoro-phenoxy]-butyric acid] is below 200 nM; for `CC(C)Oc1cccc(-c2cc(F)c(OCCCC(=O)O)c(Cl)c2)n1` [Example 402, 4-[2-chloro-6-fluoro-4-(6-isopropoxy-pyridin-2-yl)-phenoxy]-butyric acid] it is below 200 nM.
For the molecule `O=C(O)CCCOc1c(F)cc(-c2cccc(SC3CCC3)n2)cc1Cl` [Example 403, 4-[2-chloro-4-(6-cyclobutylsulfanyl-pyridin-2-yl)-6-fluoro-phenoxy]-butyric acid], the 50% effective concentration (EC50) is below 200 nM.
Take `CC(C)Sc1cccc(-c2cc(F)c(OCCCC(=O)O)c(Cl)c2)n1` [Example 404, 4-[2-chloro-6-fluoro-4-(6-isopropylsulfanyl-pyridin-2-yl)-phenoxy]-butyric acid]: the EC50 is below 200 nM.
Consider `O=C(O)CCCOc1c(F)cc(-c2cccc(OC3CCC3)c2)cc1Cl` [Example 405, 4-(5-chloro-3′-cyclobutoxy-3-fluoro-biphenyl-4-yloxy)-butyric acid], for which the concentration for a half-maximal effect (EC50) is below 200 nM.
For `O=C(O)CCCOc1c(F)cc(-c2cccc(OCC3CC3)c2)cc1Cl` [Example 406, 4-(5-chloro-3′-cyclopropylmethoxy-3-fluoro-biphenyl-4-yloxy)-butyric acid], the half-maximal effective concentration (EC50) was below 200 nM.
On to `COc1ccc(-c2cc(F)c(OCCCC(=O)O)c(Cl)c2)cc1OCC1CC1` [Example 407, 4-(5-chloro-3′-cyclopropylmethoxy-3-fluoro-4′-methoxy-biphenyl-4-yloxy)-butyric acid], for which the EC50 was below 200 nM.
Turning to `O=C(O)CCCOc1c(F)cc(-c2ccc(F)c(OCC3CC3)c2)cc1Cl` [Example 408, 4-(5-chloro-3′-cyclopropylmethoxy-3,4′-difluoro-biphenyl-4-yloxy)-butyric acid], the concentration giving a half-maximal response (EC50) was below 200 nM.
In the case of `O=C(O)CCCOc1c(F)cc(-c2cccc(SC3CCC3)c2)cc1F` [Example 409, 4-(3′-cyclobutylsulfanyl-3,5-difluoro-biphenyl-4-yloxy)-butyric acid], the 50% effective concentration (EC50) is below 200 nM.
With `CC(CCCC(=O)O)c1c(F)cc(-c2cccc(OC3CCC3)c2)cc1F` (stereo not drawn) [Example 410, 5-(3′-cyclobutoxy-3,5-difluoro-biphenyl-4-yl)-hexanoic acid], the EC50 was below 200 nM.
As for `CC(CCCC(=O)O)c1c(F)cc(-c2cc(F)cc(OC3CCC3)c2)cc1F` (stereo not drawn) [Example 411, 5-(5′-cyclobutoxy-3,5,3′-trifluoro-biphenyl-4-yl)-hexanoic acid], the concentration giving a half-maximal response (EC50) was below 200 nM.
Regarding `COc1ccc(-c2cc(F)c(C(C)CCCC(=O)O)c(F)c2)cc1OCC1CC1` (stereo not drawn) [Example 412, 5-(3′-cyclopropylmethoxy-3,5-difluoro-4′-methoxy-biphenyl-4-yl)-hexanoic acid], the EC50 is below 200 nM.
Turning to `CC(CCCC(=O)O)c1c(F)cc(-c2cccc(OCC3CC3)c2)cc1F` (stereo not drawn) [Example 413, 5-(3′-cyclopropylmethoxy-3,5-difluoro-biphenyl-4-yl)-hexanoic acid], the EC50 was below 200 nM.
In the case of `O=C(O)CCCC(F)(F)c1ccc(-c2cc(F)cc(OC3CCC3)c2)cc1` [Example 414, 5-(5′-cyclobutoxy-3′-fluoro-biphenyl-4-yl)-5,5-difluoro-pentanoic acid], the EC50 was below 200 nM.
Take `CC(CCCC(=O)O)c1c(F)cc(-c2ccc(Cl)c(OC3CCC3)n2)cc1F` (stereo not drawn) [Example 415, 5-[4-(5-chloro-6-cyclobutoxy-pyridin-2-yl)-2,6-difluoro-phenyl]-hexanoic acid]: the EC50 was below 200 nM.
With `O=C(O)CCCOc1c(F)cc(-c2cccc(S(=O)(=O)C3CCC3)c2)cc1F` [Example 416, 4-(3′-cyclobutanesulfonyl-3,5-difluoro-biphenyl-4-yloxy)-butyric acid], the EC50 lay in the range of 200 to 2000 nM.
For the molecule `CN(Cc1cc(O)no1)c1ccc(-c2cccc(OC3CCC3)n2)cc1` [Example 417, 5-({[4-(6-cyclobutoxy-pyridin-2-yl)-phenyl]-methyl-amino}-methyl)-isoxazol-3-ol], the concentration for a half-maximal effect (EC50) is below 200 nM.
The figure for `Cc1cc(-c2cc(F)c(C(C)CCCC(=O)O)c(F)c2)nc(OC2CCC2)n1` (stereo not drawn) [Example 418, 5-[4-(2-cyclobutoxy-6-methyl-pyrimidin-4-yl)-2,6-difluoro-phenyl]-hexanoic acid] is below 200 nM; for `Cc1cc(OC2CCC2)nc(-c2cc(F)c(C(C)CCCC(=O)O)c(F)c2)n1` (stereo not drawn) [Example 419, 5-[4-(4-cyclobutoxy-6-methyl-pyrimidin-2-yl)-2,6-difluoro-phenyl]-hexanoic acid] it is below 200 nM.
For the molecule `O=C(O)CCCOc1c(F)cc(-c2nccc(OC3CCC3)n2)cc1F` [Example 420, 4-[4-(4-cyclobutoxy-pyrimidin-2-yl)-2,6-difluoro-phenoxy]-butyric acid], the EC50 is below 200 nM.
The figure for `O=C(O)CCCOc1c(F)cc(-c2ccnc(OC3CCC3)n2)cc1F` [Example 421, 4-[4-(2-cyclobutoxy-pyrimidin-4-yl)-2,6-difluoro-phenoxy]-butyric acid] is below 200 nM; for `O=C(O)CCCOc1c(F)cc(-c2nccc(OC3CCC3)n2)cc1Cl` [Example 422, 4-[2-chloro-4-(4-cyclobutoxy-pyrimidin-2-yl)-6-fluoro-phenoxy]-butyric acid] it is below 200 nM; for `O=C(O)CCCOc1c(F)cc(-c2ccnc(OC3CCC3)n2)cc1Cl` [Example 423, 4-[2-chloro-4-(2-cyclobutoxy-pyrimidin-4-yl)-6-fluoro-phenoxy]-butyric acid] it is below 200 nM.
As for `O=C(O)CCCOc1c(F)cc(-c2cc(OC3CCC3)cc(Cl)n2)cc1Cl` [Example 424, 4-[2-chloro-4-(6-chloro-4-cyclobutoxy-pyridin-2-yl)-6-fluoro-phenoxy]-butyric acid], the EC50 is below 200 nM.
On to `Cc1cc(OC2CCC2)nc(-c2cc(F)c(OCCCC(=O)O)c(F)c2)n1` [Example 425, 4-[4-(4-cyclobutoxy-6-methyl-pyrimidin-2-yl)-2,6-difluoro-phenoxy]-butyric acid], for which the EC50 is below 200 nM.
In the case of `O=C(O)CCCOc1c(F)cc(-c2csc(OC3CCC3)n2)cc1Cl` [Example 426, 4-[2-chloro-4-(2-cyclobutoxy-thiazol-4-yl)-6-fluoro-phenoxy]-butyric acid], the half-maximal effective concentration (EC50) was below 200 nM.
The figure for `O=C(O)CCCOc1c(F)cc(-c2csc(OCC3CC3)n2)cc1Cl` [Example 427, 4-[2-chloro-4-(2-cyclopropylmethoxy-thiazol-4-yl)-6-fluoro-phenoxy]-butyric acid] is below 200 nM.
As for `O=C(O)CCCOc1c(F)cc(-c2nccc(OCC3CC3)n2)cc1Cl` [Example 428, 4-[2-chloro-4-(4-cyclopropylmethoxy-pyrimidin-2-yl)-6-fluoro-phenoxy]-butyric acid], the EC50 was below 200 nM.
In the case of `Cc1cc(OC2CCC2)nc(-c2cc(F)c(OCCCC(=O)O)c(Cl)c2)c1` [Example 429, 4-[2-chloro-4-(6-cyclobutoxy-4-methyl-pyridin-2-yl)-6-fluoro-phenoxy]-butyric acid], the EC50 is below 200 nM.
With `O=C(O)CCCOc1c(F)cc(-c2cncc(OC3CCC3)n2)cc1Cl` [Example 430, 4-[2-chloro-4-(6-cyclobutoxy-pyrazin-2-yl)-6-fluoro-phenoxy]-butyric acid], the EC50 was below 200 nM.
The figure for `O=C(O)CCCOc1c(F)cc(-c2cncc(OCC3CC3)n2)cc1Cl` [Example 431, 4-[2-chloro-4-(6-cyclopropylmethoxy-pyrazin-2-yl)-6-fluoro-phenoxy]-butyric acid] is below 200 nM; for `Cc1cc(OCC2CC2)nc(-c2cc(F)c(OCCCC(=O)O)c(F)c2)n1` [Example 432, 4-[4-(4-cyclopropylmethoxy-6-methyl-pyrimidin-2-yl)-2,6-difluoro-phenoxy]-butyric acid] it is below 200 nM; for `O=C(O)CCCOc1c(F)cc(-c2nccc(OCC3CC3)n2)cc1F` [Example 433, 4-[4-(4-cyclopropylmethoxy-pyrimidin-2-yl)-2,6-difluoro-phenoxy]-butyric acid] it is below 200 nM.
